SMILES strings stand for the structures.

Assay [1] has as its target Neuronal acetylcholine receptor; alpha4/beta2 (Rattus norvegicus, UniProt P09483+P12390). Briefly: Displacement of [3H]epibatidine from rat alpha4beta2 nAChR. The class given is protein-complex assay. For orientation: In a radioligand displacement assay an active substance lowers the binding of a labelled ligand.
In assay [2] the target is T1, Neuronal acetylcholine receptor subunit alpha-7 (Rattus norvegicus, UniProt Q05941). In words: Displacement of [125I]alpha-bungarotoxin from rat alpha7 nAChR.
In assay [3] the target is T1, Neuronal acetylcholine receptor subunit alpha-7. Briefly: Displacement of [3H]MLA from rat alpha7 nAChR.

Neuronal acetylcholine receptor; alpha4/beta2, sequence (P09483 whole entry): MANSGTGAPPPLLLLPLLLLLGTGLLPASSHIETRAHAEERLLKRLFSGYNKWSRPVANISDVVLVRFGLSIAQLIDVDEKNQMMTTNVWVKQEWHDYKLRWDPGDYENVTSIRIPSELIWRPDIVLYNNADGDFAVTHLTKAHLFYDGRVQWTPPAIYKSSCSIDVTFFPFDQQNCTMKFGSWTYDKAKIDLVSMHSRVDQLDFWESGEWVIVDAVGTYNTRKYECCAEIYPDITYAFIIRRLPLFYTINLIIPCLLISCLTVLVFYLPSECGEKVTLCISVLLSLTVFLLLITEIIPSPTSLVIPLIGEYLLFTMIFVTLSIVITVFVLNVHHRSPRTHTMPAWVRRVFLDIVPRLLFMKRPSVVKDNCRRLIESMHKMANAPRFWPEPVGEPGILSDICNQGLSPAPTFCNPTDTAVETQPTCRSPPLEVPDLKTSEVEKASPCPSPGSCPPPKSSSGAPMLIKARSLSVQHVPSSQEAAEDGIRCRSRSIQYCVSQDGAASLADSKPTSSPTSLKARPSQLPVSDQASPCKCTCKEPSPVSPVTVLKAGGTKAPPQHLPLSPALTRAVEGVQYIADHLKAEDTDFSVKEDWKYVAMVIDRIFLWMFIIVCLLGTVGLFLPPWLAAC
Neuronal acetylcholine receptor; alpha4/beta2, sequence (P12390 whole entry): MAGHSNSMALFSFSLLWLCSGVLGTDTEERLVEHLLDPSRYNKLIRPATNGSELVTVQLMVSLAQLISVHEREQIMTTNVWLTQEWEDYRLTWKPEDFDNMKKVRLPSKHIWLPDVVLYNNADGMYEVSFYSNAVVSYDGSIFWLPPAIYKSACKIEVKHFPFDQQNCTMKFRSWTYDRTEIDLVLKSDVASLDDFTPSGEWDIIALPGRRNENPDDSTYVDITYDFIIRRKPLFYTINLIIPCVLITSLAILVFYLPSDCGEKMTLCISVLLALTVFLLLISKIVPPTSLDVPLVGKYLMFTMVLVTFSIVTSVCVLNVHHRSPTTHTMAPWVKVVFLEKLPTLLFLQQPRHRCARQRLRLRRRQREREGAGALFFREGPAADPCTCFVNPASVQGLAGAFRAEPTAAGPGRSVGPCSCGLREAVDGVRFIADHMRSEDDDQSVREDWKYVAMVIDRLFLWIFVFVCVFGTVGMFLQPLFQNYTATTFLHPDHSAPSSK
T1 sequence (Q05941 whole entry): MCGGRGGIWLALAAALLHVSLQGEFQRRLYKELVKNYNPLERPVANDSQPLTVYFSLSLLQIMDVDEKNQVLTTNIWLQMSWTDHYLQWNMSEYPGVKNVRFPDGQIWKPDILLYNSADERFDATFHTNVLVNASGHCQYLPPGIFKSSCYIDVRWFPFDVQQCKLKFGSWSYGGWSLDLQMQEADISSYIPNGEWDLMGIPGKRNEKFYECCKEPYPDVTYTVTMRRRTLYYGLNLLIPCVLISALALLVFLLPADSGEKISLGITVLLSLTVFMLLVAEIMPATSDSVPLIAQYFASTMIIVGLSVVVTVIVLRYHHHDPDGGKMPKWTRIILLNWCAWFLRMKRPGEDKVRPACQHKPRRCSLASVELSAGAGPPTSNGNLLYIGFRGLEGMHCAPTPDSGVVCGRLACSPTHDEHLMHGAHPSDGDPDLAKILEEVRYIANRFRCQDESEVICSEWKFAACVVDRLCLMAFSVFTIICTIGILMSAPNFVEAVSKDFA

In the case of `c1cc(N2CCOCC2)ncc1C1CN2CCC1CC2` (stereo not drawn), the Ki worked out at 21 µM in assay [1] and 0.35 µM in assay [2].

Turning to `C1=C(c2ccc(N3CCOCC3)nc2)C2CCC1N2` (stereo not drawn), the inhibition constant (Ki) in assay [1] came to 12 µM; in assay [2], 33 µM.

Regarding `C1=C(c2ccc(N3CCOCC3)nc2)C2CCN1CC2`, the Ki in assay [1] was determined as 3.1 µM; in assay [2] it was 0.4 µM.

On to `C[N+]12CCC(CC1)C(c1ccc(N3CCOCC3)nc1)C2` (stereo not drawn), for which the inhibition constant (Ki) in assay [1] came to 25 µM; in assay [2], 6.1 µM.

In the case of `C[N+]12C=C(c3ccc(N4CCOCC4)nc3)C(CC1)CC2`, the Ki in assay [1] turned out to be 22 µM; in assay [2], 5.6 µM.

As for `C1=C(c2cccnc2)C2CCN1CC2`, the Ki worked out at 0.11 µM in assay [1], 0.14 µM in assay [2] and 0.085 µM in assay [3].

As a reminder, the Ki is the equilibrium dissociation constant of an inhibitor or competing ligand from its target. A higher Ki goes with a looser hold on the target.

Values taken from ChEMBL document CHEMBL1156085, “Design of novel alpha7-subtype-preferring nicotinic acetylcholine receptor agonists: application of docking and MM-PBSA computational approaches, synthetic and pharmacological studies” (Bioorg Med Chem Lett, 2009).
